Results: US20260209299A1, “TROP2 IMMUNOGENIC PEPTIDE” (ASTON SCIENCE INC., priority 2023, published 2026)

What was measured:
[1] = tested on: interferon-gamma (IFN-γ)-forming T cells; experiment: ELISpot assay of IFN-γ-forming T cells using PBMC; format: cell-based; details: FIG. 5; human PBMCs, peptide 10 μg/mL, 70-72 hours
Description: The frequency of interferon-gamma (IFN-γ, 3420-4HPW-10, MabTech, Stockholm, Sweden) and interleukin-10 (IL-10, 3430-4HPW-10, MabTech)-forming T cells was assessed using the ELISpot assay.
Specifically, the pre-coated plates were washed four times with 200 μL/well of PBS. Human PBMCs (PCS-800-011, ATCC, Virginia, USA) 2×10^6/mL were dispensed onto the coated plate, and TROP2 peptides were dispensed at 10 μg/mL each and reacted with the PBMCs. The plate reacted under a total volume of 200 μL/well was incubated at 5% CO2, 37° C. for 70-72 hours. Then, the plate was washed 5 times with 200 μL of PBS, and 200 μL of diluted detection antibody (IFN-γ:7-B6-1-biotin; IL-10:12G8-biotin) was added to the wells of the plate, and then reacted at room temperature for 2 hours. After the reaction, the plate was washed 5 times with 200 μL of PBS, and 1:1000 diluted streptavidin-HRP was added at 100 μL/well, followed by reaction at room temperature for 1 hour. Then, the resulting product was washed 5 times with 200 μL of PBS, 100 μL/well of TMB substrate solution was added and reacted at RT for up to 5-10 minutes, and then the spots were counted using the AID iSpot reader system (AID, Strassberg, Germany).

MDA-MB-231 cell line = experiment: Antitumor effect of cancer vaccine alone in Xenograft cancer mouse model; format: in vivo, athymic Balb/C nude mice; details: peptide + CFA/IFA + mGM-CSF, 100 μg per mouse subcutaneously on days 1, 8, 15, 22; vs control group G1
Description: Five-week-old athymic Balb/C nude mice weighing 16 to 18 g were purchased and acclimated for at least 3 to 7 days.
The MDA-MB-231 cell line, a human-derived triple-negative breast cancer cell line, was suspended at 5×10^6 cells per individual in 200 μl of a 1:1 mixture of PBS and Matrigel and injected subcutaneously into the axillary region between the right scapular area and the thoracic wall of the mouse.
On Day 16 after MDA-MB-231 cell transplantation, 32 mice (mean tumor size 143.8±2.9 mm^3) with tumor sizes reaching approximately 150 mm^3 were selected and assigned to each group of 8 mice.
Each group was divided into Group 1 (G1): PBS+CFA/IFA, Group 2 (G2): SEQ ID NO: 3 peptide+CFA/IFA+mGM-CSF, Group 3 (G3): SEQ ID NO: 10 peptide+CFA/IFA+mGM-CSF, and Group 4 (G4): SEQ ID NO: 17 peptide+CFA/IFA+mGM-CSF.
Next, the immunogenic peptide (TROP2 peptide) according to the present invention was administered subcutaneously at a dose of 100 μg per mouse on days 1, 8, 15, and 22 (the 16th day after cell transplantation was designated as Day 0, and the following day was designated as Day 1) for a total of 4 times, and the tumor size for each individual was calculated 11 times (0, 1, 4, 7, 11, 14, 18, 21, 25, 28, and 32) from Day 0 to Day 32. Then, the tumor growth change rate was calculated by comparison with the control group of each Test Group.

[2] = tested on: interleukin 10 (IL-10)-producing regulatory T cells (CD4^+IL-10^+); experiment: FACS analysis of IL-10-producing regulatory T cells (CD4+IL-10+) after peptide treatment of PBMCs; format: cell-based; details: healthy human PBMCs, peptide 10 μg/ml with 1 μg/ml anti-CD3, 72 hours, then PMA/ionomycin + GolgiPlug 6 hours
Description: (§1) Healthy human peripheral blood mononuclear cells (PBMCs; 2,000,000 cells per well) were cultured in 96× round bottom well plates in the presence or absence of anti-CD3 (clone HIT) and peptide at the indicated ratios.
(§2) Specifically, the peptide synthesized in Example 1 at a concentration of 10 μg/ml was cultured with 1 μg/ml of anti-CD3 in a 37° C. incubator for 72 hours. The culture medium consisted of complete RPMI1640 medium supplemented with 10% fetal bovine serum, 10 mM HEPES, 50 µM B-ME, and penicillin/streptomycin/L-glutamine. After 72 hours of culture, the cells were stimulated with Phorbol 12-myristate 13-acetate (50 ng/ml) and Ionomycine (1 μg/mL), which are intracellular cytokine secretion stimulators. To prevent cytokine secretion into the culture medium, the cells were co-stimulated with GolgiPlug, a protein transport inhibitor, at a concentration of 1/100 diluted in PBS for 6 hours in a 37° C. incubator. After stimulation, the cells were washed twice with PBS.
(§3) To determine only the viable cells among the PBMC cells, the cells were labeled with eFlor780-conjugated Fixable Viability dye diluted 1:100 in PBS for 15 minutes at 4° C., and washed twice with stain buffer after 15 minutes. After washing, the cells were surface-labeled with BV421-conjugated anti-CD4 (clone RPA-T4) and PE-Cy5-conjugated anti-CD25 (clone 2A3) antibodies diluted 1:100 in stain buffer for 30 minutes at 4° C. Then, the cells labeled with cell surface proteins were washed twice with stain buffer. Next, to detect cytokines secreted intracellularly, the cells were fixed for 1 hour at room temperature with fixation buffer and then washed with permeabilization buffer. To enable antibodies to detect intracellular cytokines, the fixed cells were labeled overnight at 4° C. with PerCP-Cy5. 5-conjugated anti-IFN-g (clone 4S. B3), Brilliant Violet 510-conjugated anti-IL-4 (clone MP4-25D2), anti-Foxp3 (clone PCH101), and PE-conjugated anti-IL-10 diluted 1:100 in permeabilization (clone JES3-19F1) buffer. Then, the cytokine-labeled cells were washed twice with stain buffer, and cell flow assays were performed using an Attune NxT Acoustic Focusing Cytometer (Invitrogen). Data analysis was performed using Flowjo v10.7.1 software (FlowJo).

[3] = tested on: regulatory T cells (CD4^+CD25^+Foxp3^+); experiment: FACS analysis of regulatory T cells (CD4+CD25+Foxp3+) after peptide treatment of PBMCs; format: cell-based; details: healthy human PBMCs, peptide 10 μg/ml with 1 μg/ml anti-CD3, 72 hours, then PMA/ionomycin + GolgiPlug 6 hours
Description: (§4) To this end, the degree of stimulation of Type 1 helper T cells (CD4^+IFN-γ^+), stimulation of interleukin 10 (IL-10)-producing regulatory T cells (CD4^+IL-10+), stimulation of regulatory T cells (CD4^+CD25^+Foxp3^+), and stimulation of Type 2 helper T cells secreting IL-4 and Th17 cells secreting IL-17 according to the treatment with the immunogenic peptide were confirmed.
as §1, §2, §3
(§5) The activity results of the immunogenic peptide candidate group were confirmed by first isolating CD4^+ T cells (helper T cells) from PBMCs, and then classifying the isolated cells into Type 1 helper T cells (CD4^+IFN-γ^+), Type 2 helper T cells (CD4^+IL-4^+), regulatory T cells (CD4^+CD25^+Foxp3^+), and interleukin-10 (IL-10)-producing regulatory T cells (CD4^+IL-10^+) and analyzing the results.

[4] = tested on: Type 2 helper T cells (CD4^+IL-4^+); experiment: FACS analysis of Type 2 helper T cells (CD4+IL-4+) after peptide treatment of PBMCs; format: cell-based, human; details: FIG. 2; peptide together with PMA, ionomycin
Description: as §4, §1, §2
as §3, with “(FlowJo). […]” for “(FlowJo).”

[5] = tested on: Type 1 helper T cells (CD4^+IFN-γ^+); experiment: FACS analysis of Type 1 helper T cells (CD4+IFN-γ+) after peptide treatment of PBMCs; format: cell-based, human; details: for Combined Score: (A value×0.8)+(B value×0.2); for IFN-gamma − IL-10: A value: difference between distribution of IFN-γ secreting T cells and distribution of IL-10 secretion; for IFN-gamma − Treg: B value: difference between distribution of IFN-γ secreting T cells and Treg distribution; for IFN-gamma (Th1, CD4+): FACS, healthy human PBMCs, peptide 10 μg/ml with 1 μg/ml anti-CD3, 72 hours, then PMA/ionomycin + GolgiPlug 6 hours; for stimulation of Type 1 helper T cells (CD4+IFN-γ+), flow cytometry plot: FIG. 1, peptide together with PMA, ionomycin; for effect of stimulating Type 1 helper T cells while not stimulating Type 2 helper T cells and regulatory T cells: overall FACS conclusion, Table 2
Description: as §4, §1, §2, §3
1) Calculate the difference between the distribution of IFN-γ secreting T cells and the distribution of IL-10 secretion (A value),
2) Calculate the difference between the distribution of IFN-γ secreting T cells and the Treg distribution (B value),
3) Use the formula “(A value×0.8)+(B value×0.2)” as the final combined scoring, and
as §5

Sequence | number of cells secreting IFN-γ (ELISpot spots) [1] | TGI rate (%) at Day 32 (MDA-MB-231 cell line) | IL-10 (Th2, CD4+) [2] | Treg (CD25+/Foxp3) [3] | stimulation of Type 2 helper T cells (CD4+IL-4+), flow cytometry plot [4] | Combined Score [5] | IFN-gamma − IL-10 [5] | IFN-gamma − Treg [5] | IFN-gamma (Th1, CD4+) [5] | stimulation of Type 1 helper T cells (CD4+IFN-γ+), flow cytometry plot [5] | effect of stimulating Type 1 helper T cells while not stimulating Type 2 helper T cells and regulatory T cells [5]
LVRPSEHALVDNDGL [SEQ ID NO: 10] | dramatically increased the secretion of IFN-γ | 38.5% | 2.03% | 7.66% | hardly stimulated Type 2 helper T cells (CD4^+IL-4^+) | 17.84 | 18.97% | 13.34% | 21.00% | stimulated Type 1 helper T cells (CD4^+IFN-γ^+) to a high degree | most excellent
TLIYYLDEIPPKFSM [SEQ ID NO: 20] | – | – | 5.28% | 8.07% | – | 10.26 | 10.82% | 8.03% | 16.10% | – | –
AGLIAVIVVVVVALVAGMAVLVITNRRKSGKYKK [SEQ ID NO: 24] | – | – | 4.75% | 7.10% | – | 11.88 | 12.35% | 10.00% | 17.10% | – | –
PKFSMKRLTAGLIAVIV [SEQ ID NO: 22] | – | – | – | 7.65% | – | 11.25 | 11.75% | 9.25% | 16.90% | – | –
RGEPLQVERTLIYYL [SEQ ID NO: 18] | – | – | 2.10% | 8.01% | hardly stimulated Type 2 helper T cells (CD4^+IL-4^+) | 19.62 | 20.80% | 14.89% | 22.90% | stimulated Type 1 helper T cells (CD4^+IFN-γ^+) to a high degree | most excellent
SLRCDELVRTHHILIDLRHRPTAGAFN [SEQ ID NO: 11] | – | – | 5.49% | 8.23% | – | 11.16 | 11.71% | 8.97% | 17.20% | – | –
SKCLLLKARMSAPKN [SEQ ID NO: 8] | – | – | 5.25% | 8.22% | – | 11.06 | 11.65% | 8.68% | 16.90% | – | –
PLRLPLLLLVLAAVTGHTAAQD [SEQ ID NO: 3] | dramatically increased the secretion of IFN-γ | 52.4% | 2.34% | 8.84% | hardly stimulated Type 2 helper T cells (CD4^+IL-4^+) | 20.36 | 21.66% | 15.16% | 24.00% | stimulated Type 1 helper T cells (CD4^+IFN-γ^+) to a high degree | most excellent
RERYRLHPKFVAAVH [SEQ ID NO: 15] | – | – | 4.93% | 7.93% | – | 12.27 | 12.87% | 9.87% | 17.80% | – | –
EPLQVERTLIYYLDE [SEQ ID NO: 19] | dramatically increased the secretion of IFN-γ | – | – | – | – | – | – | – | – | – | –
